Read-outs that look alike come from different tables or passages of the source.
What was measured:
[1] = tested on: OATP; settings: cited from earlier work
[2] = tested on: MCF-7 xenograft tumors; assay: Nuclear imaging (microPET/microSPECT) of mice with MCF-7 xenograft tumors; type: in vivo; settings: for visualization of breast tumors in maximal projection images: PC-002 at 48 h post ip, 18F-FDG at 1.5 h post iv, same mouse, FIG. 4
Experimental: FIG. 1 depicts the SPECT/CT image of PC-001 with a nude mouse model of a human breast cancer MCF-7 xenograft in accordance with various embodiments of the present invention. […] SPECT/CT scan was performed at 20 h post injection.
FIG. 3 depicts the transverse PET images of PC-002 at 24 and 48 h post ip injection and ^18F-FDG at 1.5 h post iv injection of the same mouse (20 g) harbored with MCF-7 tumor xenografts in accordance with various embodiments of the present invention.
FIG. 4 depicts the comparison of maximal projection images (MPIs) of PC-002 at 48 h post ip injection and ^18F-FDG at 1.5 h post iv injection of the same mouse (20 g) harbored with MCF-7 tumor xenografts in accordance with various embodiments of the present invention.
FIG. 8 depicts the transverse PET images of PC-003 at 48 and 72 h post ip injection and with the same mouse (20 g) with MCF-7 tumor xenografts in accordance with various embodiments of the present invention.
PC-001, PC-002, and PC-003 were evaluated as nuclear imaging probe using mice with MCF-7 xenograft tumors. […] PC-002/PET images were compared with FDG/PET with same mice.

[3] = tested on: human and mouse cancer cell lines in vitro and tumor xenografts in vivo; settings: cited from earlier work
[4] = tested on: MCF-7 xenografts; assay: NIR fluorescence imaging, in vivo and ex vivo, of mice with MCF-7 xenografts; settings: dissected tumor, ex vivo, FIG. 7
Experimental: FIG. 2 depicts the NIR fluorescence image of PC-002 with a nude mouse (20 g) with MCF-7 tumor xenografts in accordance with various embodiments of the present invention. PC-002 (10 nmol) in saline (200 ul) was injected via tail vein. The live fluorescence images were performed at time points (as indicated) post injection using an IVIS Spectrum device (Ex/Em=745/800 nm).
FIG. 7 depicts the correlation of PC-002 uptake and ex vivo images in accordance with various embodiments of the present invention. A MCF-7 xenograft tumor was dissected and cut into two halves.
The optical imaging property of “cold” counterpart of PC-002, comprising stable copper isotope, was evaluated with mice models with MCF-7, C4-2, and ARCaPM tumors. In mice with MCF-7 xenografts, tumor uptake of PC-002 was discernable at 3 hrs post injection and contrast of tumor and normal tissues reached most profound at 24 hrs post injection (FIG. 2).
At 24 hrs post PC-002 injection, a MCF-7 xenograft tumor was dissected and cut into two halves. The viable sections of the tumor in white, right photograph matched with PC-002 fluorescence distribution performed using a Caliper Spectrum device (FIG. 7). The cancer cells in the microscopic image of the H/E stained tumor slice were also overlapped with PC-002 NIR fluorescence of the same tumor slice.

[5] = tested on: xenograft prostate tumors; assay: PET imaging of xenograft prostate tumors; type: in vivo, mice; settings: FIG. 16
Description: FIGS. 16A-D illustrate PET imaging of xenograft prostate tumors.
In the past, several attractive PET probes, such as ^18F-2-fluoro-2-deoxy-D-glucose (18 F-FDG) or 111In-tagged antibodies, and more recently the development of smaller sized versions of antibodies such as diabodies and minibodies recognizing PSMA and PSCA, have been proposed to detect PCa; but because of their relative large molecular weight as antibodies, potential host immune response to foreign antibodies, and the lack of Pca specificity using 18F-FDG, application of PET/SPECT probe to detect PCa has not been successful. […] As a small molecule, PC-002 has the advantages of being non-immunogenic, easier to purify and to scale-up, and higher stability for storage and shipping. Because of suboptimal NIR dye signal penetration through deep tissues, we chemically synthesized PC-002, a lead PET 64Cu-DOTA-NIR dye30, to facilitate future translation to the clinic. […] Based on this highly promising result, 64Cu-DOTA-based NIR dye for imaging PCa bone and soft tissue metastases can be used concurrently with 99 mTc-MDP to detect reactive bone activity. For example, this strategy can be used in the robust mouse models of PCa metastasis developed by our laboratory. […]

[6] = Blood clearance in nude mice; settings: mouse, in vivo
Experimental: FIG. 6 depicts the blood clearance curve of PC-002 in nude mice in accordance with various embodiments of the present invention. The T1/2 is 256.9±13.2 min. (N=3).
The half-life (T1/2) of PC-001, PC-002, and PC-003 is 3, 4.3, and 3 hours, respectively. The long blood circulation times results in good images taken at later hours; for example, 24 to 72 hrs post injection.

[7] = tested on: subcutaneous C4-2 or tibial ARCaPM tumors; assay: Ex vivo fluorescent imaging and frozen-section microscopy of harvested tumors and soft tissues; type: in vivo, mice
Experimental: FIG. 11 depicts the harvested bone ARCaPM and subcutaneous C4-2 human prostate tumors embedded with OCT at −25° C. and subjected to frozen sectioning using Cryostat in accordance with various embodiments of the present invention. The frozen sections were fixed and aqueously mounted and imaged using fluorescent microscopy (200× magnification). Note the Dual Nuclear/NIR Agent was actively uptaken into tumor cells.
The PC-002 (2 nmole) was intravenously injected into mouse with either subcutaneous C4-2 or tibial ARCaPM tumors and the mice were subjected to fluorescent imaging using the Xenogen Imaging System at the interval of 1 h, 2 h, 4 h, 8 h, 10 h, 12 h, 24 h and 48 h after the dye injection. The fluorescence signal was found accumulating in subcutaneous C4-2 tumor beginning at 24 hr while the signal was found at 2 hr in the in intratibial ARCaPM tumor in mouse skeleton (FIG. 9).
The harvested bone (ARCaPM) and subcutaneous (C4-2) tumors were embedded with OCT at −25° C. and subjected to frozen sectioning using Cryostat.

O=C1OC(c2ccc(O)c(S(=O)(=O)O)c2)(c2ccc(O)c(S(=O)(=O)O)c2)c2c(Br)c(Br)c(Br)c(Br)c21 [BSP]
effect on NIR dye uptake [1]: completely blocked

OC[C@H]1OC(O)[C@H]([18F])[C@@H](O)[C@@H]1O (stereo partly drawn) [FDG, 18F-2-fluoro-2-deoxy-D-glucose, reference compound]
visualization of breast tumors in maximal projection images [2]: only barely seen

CC1(C)C(=CC=C2CCCC(C=CC3=[N+](CCCCS(=O)(=O)[O-])c4ccccc4C3(C)C)=C2Cl)N(CCCCS(=O)(=O)[O-])c2ccccc21.[Na+] [IR783]
uptake and retention by cancer cell lines and tumor xenografts [3]: uptake and retention

CCCN1/C(=C/C=C2\CCCC(/C=C/C3=[N+](CCC)c4ccccc4C3(C)C)=C2Cl)C(C)(C)c2ccccc21.[I-] [IR-780]
uptake and retention by cancer cell lines and tumor xenografts [3]: uptake and retention

CC1(C)C(/C=C/C2=C(Cl)C(=C/C=C3/N(CCCCCC(=O)NCCCCC(NC(=O)C[N+]45CC[N+]6(CC(=O)[O-])CC[N+]7(CC(=O)[O-])CC[N+](CC(=O)O)(CC4)[64Cu-2]765)C(=O)O)c4ccccc4C3(C)C)/CCC2)=[N+](CCCCCC(=O)O)c2ccccc21 (centres unmarked) [PC-002]
association of NIR and PC-002 signals with tumor tissue type [4]: associated with viable and not necrotic tissues
selectivity for tumor xenografts [5]: remarkable selectivity
SUV of MCF-7 tumor relative to hind leg muscles ([2]; FIG. 5): 6 times
visualization of breast tumors in maximal projection images [2]: clearly visualized
suitability as nuclear imaging probe ([2]; microPET or microSPECT): suitable candidates for molecular imaging of cancer
tumor contrast and selectivity compared with FDG/PET ([2]; same mice, FIGS. 3 and 4): higher tumor contrast and selectivity than FDG
half-life ([6]; half-life (T1/2), blood clearance): 258 min
half-life ([6]; nude mice, N=3, FIG. 6, read-out: blood clearance T1/2): 257 ± 13.2 min
uptake in frozen sections, fluorescent microscopy ([7]; 200× magnification, FIG. 11): selectively uptaken in cancer cells
uptake and retention, ex vivo fluorescent imaging ([7]; harvested at 24 hrs post injection, FIG. 10): in tumor only
